From patent publication US7771761B2, “Cheese with calcium lactate crystal inhibitor” (Regents of The University of Minnesota, priority 2005, dated 2010)
Counter-ions that a name gives are not always drawn. Like-named read-outs stand apart in the source and are kept apart here.

Tests used:
[1] = Solubility model Example 4: calcium analysis by Atomic Absorption Spectroscopy; conditions: for Calcium analysis After Storage: 1.5% additive, 14 days at 7° C., filtered supernatant
Experimental: (§1) Demineralized water (60° C.) was then added to the flask to obtain a final weight of 100 g and the flask was stirred to dissolve the calcium lactate powder. Subsequently a piece of 1.5×3 cm sand paper was added to the flask to provide a nucleation site for calcium lactate crystal formation and the flask was sealed with a rubber stopper.
(§2) After preparation a sample of each solution was collected.
(§3) Subsequently all solutions were stored at 7° C. for 14 days. After 14 days the flasks were visually inspected for the presence of crystals on the sand paper and the solutions were filtered at 7° C. through filter paper (Whatman 4; Whatman International Ltd., Maidstone, England).
(§4) The supernatant and the sample collected prior to storage were analyzed for lactic acid using High Performance Liquid Chromatography (HPLC) and for calcium content by Atomic Absorption Spectroscopy (AAS), providing the results reported below in Tables II and III.

[2] = Solubility model Example 4: lactate analysis by HPLC; conditions: for Lactate analysis After Storage: 1.5% additive, 14 days at 7° C., filtered supernatant
Experimental: as §1, §2, §3, §4

[3] = Solubility model Example 4: visual inspection for crystals on sand paper in calcium lactate solution; format: physicochemical; conditions: 1.5% additive in 5.31 g calcium lactate/100 g solution, pH 6.6, 14 days at 7° C.
Experimental: as §1, §2, §3

[4] = Solubility model Example 3: filtrate analysis of calcium lactate solutions with sodium gluconate; format: physicochemical; conditions: 48 hours at about 40° F., cold filtered
Description: A test was run to determine the ability of ionic gluconate provided by sodium gluconate in an aqueous solution to bind with lactate over time, to thereby model the believed primary phenomenon resulting in reduced formation of calcium lactate crystal. In each sample of the model, 14.1 g of calcium lactate pentahydrate (CH3CHOHCOO)2 Ca.5H2O) was used to provide 10 g of calcium lactate (1.83 g calcium ion, 8.17 g lactate ion). Different amounts of sodium gluconate (NaC6H11O7), amounts shown in Table I below) were combined with the calcium lactate pentahydrate and diluted to 100 ml with water. The samples were prepared at room temperature and each mixed well. The samples were then refrigerated at about 40° F. for 48 hours, with each sample being mixed several times during the 48 hour holding period. After the holding period, the samples were cold filtered (40° F.) and the filtrate analyzed for lactate, gluconate and calcium concentrations.

Calcium analysis Initial Concentration [1]	Calcium analysis After Storage [1]	Lactate analysis Initial Concentration [2]	Lactate analysis After Storage [2]	presence of crystals on the sand paper (visual inspection) [3]	Calcium analysis Initial Concentration ([1]; 0 days, 1.5 %, pH 6.6)	Lactate analysis Initial Concentration ([2]; 0 days, 1.5 %, pH 6.6)	Structure (SMILES)	FILTRATE RESULTS C6H11O7(%) ([4]; 5 g NaC6H11O7 added to 14.1 g calcium lactate pentahydrate in 100 ml)	FILTRATE RESULTS C6H11O7(%) ([4]; 10 g NaC6H11O7 added to 14.1 g calcium lactate pentahydrate in 100 ml)	FILTRATE RESULTS C6H11O7(%) ([4]; 15 g NaC6H11O7 added to 14.1 g calcium lactate pentahydrate in 100 ml)	FILTRATE RESULTS C6H11O7(%) ([4]; 20 g NaC6H11O7 added to 14.1 g calcium lactate pentahydrate in 100 ml)	FILTRATE RESULTS C6H11O7(%) ([4]; 25 g NaC6H11O7 added to 14.1 g calcium lactate pentahydrate in 100 ml)
1.05%	1.04%	4.33%	4.33%	no crystals were visually observed			O=C(O)[C@H](O)[C@@H](O)[C@H](O[C@@H]1O[C@H](CO)[C@H](O)[C@H](O)[C@H]1O)[C@H](O)CO [Sodium lactobionate, lactobionic acid]					
	1.06%		4.47%	no crystals were visually observed	1.07%	4.43%	O=C(O)CC(O)C(=O)O (stereo not drawn) [Sodium malate, malic acid disodium salt]					

Structure (SMILES)	Calcium analysis Initial Concentration [1]	Calcium analysis After Storage [1]	Lactate analysis Initial Concentration [2]	Lactate analysis After Storage [2]	presence of crystals on the sand paper (visual inspection) [3]	Calcium analysis Initial Concentration ([1]; 0 days, 1.5 %, pH 6.6)	Lactate analysis Initial Concentration ([2]; 0 days, 1.5 %, pH 6.6)	FILTRATE RESULTS C6H11O7(%) ([4]; 5 g NaC6H11O7 added to 14.1 g calcium lactate pentahydrate in 100 ml)	FILTRATE RESULTS C6H11O7(%) ([4]; 10 g NaC6H11O7 added to 14.1 g calcium lactate pentahydrate in 100 ml)	FILTRATE RESULTS C6H11O7(%) ([4]; 15 g NaC6H11O7 added to 14.1 g calcium lactate pentahydrate in 100 ml)	FILTRATE RESULTS C6H11O7(%) ([4]; 20 g NaC6H11O7 added to 14.1 g calcium lactate pentahydrate in 100 ml)	FILTRATE RESULTS C6H11O7(%) ([4]; 25 g NaC6H11O7 added to 14.1 g calcium lactate pentahydrate in 100 ml)
O=C([O-])[C@H](O)[C@@H](O)[C@H](O)[C@H](O)CO.[Na+] [Sodium gluconate, sodium gluconate]		1.08%		4.41%	no crystals were visually observed			2.97%	7.55%	11.15%	14.21%	16.61%
